# Measurements from patent US10138225B2 (Achillion Pharmaceuticals, Inc., priority 2015, dated 2018).
# Biological target: T1, Human Factor D (Homo sapiens, UniProt P00746)
# T1 construct: purified from human serum; purchased Complement Technology, Inc; host or cells: human serum (natural protein, not recombinant)
# Experiment: Human Factor D Assay
# Format: biochemical
# Settings: Table 1; Factor D 80 nM, substrate Z-L-Lys-SBzl; read-out: IC50
# Method in brief: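 Serum-purified human factor D (80 nM final) was preincubated with compound for 5 min at room temperature in 50 mM Tris, 1 M NaCl, pH 7.5. Z-L-Lys-SBzl and DTNB were added at 100 μM each, and A405 was read every 30 s for 30 min. IC50 came from nonlinear regression of reaction rates versus compound concentration.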
# T1 sequence (P00746 26-253): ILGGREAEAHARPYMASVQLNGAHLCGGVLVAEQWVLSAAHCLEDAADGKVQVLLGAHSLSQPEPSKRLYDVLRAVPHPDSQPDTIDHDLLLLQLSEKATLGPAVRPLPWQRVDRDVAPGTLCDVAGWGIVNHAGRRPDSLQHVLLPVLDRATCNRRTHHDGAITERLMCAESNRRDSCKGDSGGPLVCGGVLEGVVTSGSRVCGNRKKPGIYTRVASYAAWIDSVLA
row,Compound,IC50 [nM]
1,"CC(=O)c1cn(CC(=O)N2C[C@H](F)C[C@H]2C(=O)NCc2cccc(Cl)c2F)c2ccc(NC(=O)Nc3ccon3)cc12 [Compound 19, (2S,4R)-1-(2-(3-acetyl-5-(3-isoxazol-3-ylureido)-1H-indol-1-yl)acetyl)-N-(3-chloro-2-fluorobenzyl)-4-fluoropyrrolidine-2-carboxamide]",< 1000
2,"CC(=O)c1cn(CC(=O)N2[C@@H]3C[C@@H]3C[C@H]2C(=O)NCc2cccc(Cl)c2F)c2ccc(NC(=O)NC3CC3)cc12 [Compound 3, (1R,3S,5R)-2-(2-(3-acetyl-5-(3-cyclopropylureido)-1H-indol-1-yl)acetyl)-N-(3-chloro-2-fluorobenzyl)-2-azabicyclo[3.1.0] hexane-3-carboxamide]",< 1000
3,"CC(=O)c1cn(CC(=O)N2C[C@H](F)C[C@H]2C(=O)NCc2cccc(Cl)c2F)c2ccc(NC(=O)N3CCCC(F)(F)C3)cc12 [Compound 16, N-(3-acetyl-1-(2-((2S,4R)-2-(3-chloro-2-fluorobenzylcarbamoyl)-4-fluoropyrrolidin-1-yl)-2-oxoethyl)-1H-indol-5-yl)-3,3-difluoropiperidine-1-carboxamide]",< 1000
4,"CC(=O)c1cn(CC(=O)N2C[C@H](F)C[C@H]2C(=O)Nc2cccc(C(F)(F)F)n2)c2ccc(NC(=O)N3CCCC(F)(F)C3)cc12 [Compound 20, N-(3-acetyl-1-(2-((2S,4R)-4-fluoro-2-(6-(trifluoromethyl)pyridin-2-ylcarbamoyl)pyrrolidin-1-yl)-2-oxoethyl)-1H-indol-5-yl)-3,3-difluoropiperidine-1-carboxamide]",< 1000
5,"CC(=O)c1cn(CC(=O)N2[C@@H]3C[C@@H]3C[C@H]2C(=O)NCc2cccc(Cl)c2F)c2ccc(NC(=O)N3CCCC3)cc12 [Compound 12, (1R,3S,5R)-2-(2-(3-acetyl-5-(pyrrolidine-1-carboxamido)-1H-indol-1-yl)acetyl)-N-(3-chloro-2-fluorobenzyl)-2-azabicyclo[3.1.0] hexane-3-carboxamide]",< 1000
6,"NC(=O)c1nn(CC(=O)N2C[C@H](F)C[C@H]2C(=O)Nc2cccc(OC(F)(F)F)c2F)c2ccc(NC(=O)Nc3ccon3)cc12 [Compound 25, 1-(2-((2S,4R)-4-fluoro-2-(2-fluoro-3-(trifluoromethoxy)phenylcarbamoyl)pyrrolidin-1-yl)-2-oxoethyl)-5-(3-isoxazol-3-ylureido)-1H-indazole-3-carboxamide]",< 1000
7,"CC(=O)c1cn(CC(=O)N2C[C@H](F)C[C@H]2C(=O)NCc2cccc(Cl)c2F)c2ccc(NC(=O)OCC3CC3)cc12 [Compound 15, cyclopropylmethyl 3-acetyl-1-(2-((2S,4R)-2-(3-chloro-2-fluorobenzylcarbamoyl)-4-fluoropyrrolidin-1-yl)-2-oxoethyl)-1H-indol-5-ylcarbamate]",< 1000

# Same assay, conditions: Table 2; Factor D 80 nM, substrate Z-L-Lys-SBzl; read-out: IC50
row,Compound,IC50 [nM]
1,"NC(=O)c1nn(CC(=O)N2C[C@H](F)C[C@H]2C(=O)Nc2cccc(-c3ccccc3Cl)c2F)c2cc(C(=O)N3CCCC3)sc12 [Compound 60, 1-(2-((2S,4R)-2-(2′-chloro-2-fluorobiphenyl-3-ylcarbamoyl)-4-fluoropyrrolidin-1-yl)-2-oxoethyl)-5-(pyrrolidine-1-carbonyl)-1H-thieno[3,2-c]pyrazole-3-carboxamide]",< 1000
2,CNC(=O)c1cc2c(s1)c(C(N)=O)nn2CC(=O)N1C[C@H](F)C[C@H]1C(=O)Nc1cccc(-c2ccccc2Cl)c1F [Compound 58],< 1000

# Same assay, conditions: Table 3; factor D inhibition assay; read-out: IC50 (Stars)
row,Compound,IC50 [nM]
1,"CC(=O)c1cn(CC(=O)N2C[C@H](F)C[C@H]2C(=O)NCCc2ccccc2)c2ccc(C(=O)NS(=O)(=O)C3CC3)cc12 [Compound 185, 3-acetyl-N-(cyclopropylsulfonyl)-1-(2-((2S,4R)-4-fluoro-2-(phenethylcarbamoyl)pyrrolidin-1-yl)-2-oxoethyl)-1H-indole-5-carboxamide]",> 10000
2,"CC(=O)c1nn(CC(=O)N2C[C@H](F)C[C@H]2C(=O)Nc2cccc(Br)n2)c2cc(C(=O)NS(=O)(=O)C3CC3)ccc12 [Compound 233, 3-acetyl-1-(2-((2S,4R)-2-((6-bromopyridin-2-yl)-carbamoyl)-4-fluoro-pyrrolidin-1-yl)-2-oxoethyl)-N-(cyclopropylsulfonyl)-1H-indazole-6-carboxamide]",< 1000
3,"CC(=O)c1cn(CC(=O)N2C[C@H](F)C[C@H]2C(=O)NCCCc2ccccc2)c2ccc(NC(=O)N3CCCC(F)(F)C3)cc12 [Compound 198, N-(3-acetyl-1-(2-((2S,4R)-4-fluoro-2-((3-phenylpropyl)carbamoyl)pyrrolidin-1-yl)-2-oxoethyl)-1H-indol-5-yl)-3,3-difluoropiperidine-1-carboxamide]",< 1000
